In ChEMBL document CHEMBL4350980, “Synthesis and structure-activity relationships of small-molecular di-basic esters, amides and carbamates as flaviviral protease inhibitors” (Eur J Med Chem, 2019):
pIC50: −log10 of the molar value. The source made the active and inactive calls. No cut-off for these calls is given here.

Experiments:
Prothrombin [1] = molecular target: T1, Prothrombin (Homo sapiens, UniProt P00734); assay: Inhibition of thrombin (unknown origin) at 25 uM using Boc-Val-Pro-Arg-AMC as substrate preincubated with enzyme for 15 mins followed by addition of substrate by fluorescence plate reader analysis relative to control
[2] = molecular target: Genome polyprotein (dengue virus type 2) (UniProt P29990); assay: (§1) Inhibition of dengue virus serotype 2 His-tagged NS2B cofactor domain-NS3 protease expressed in Escherichia coli at 50 uM using 2-Abz-Nle-Lys-Arg-Arg-Ser-(3-NO2)-Tyr-NH2 as substrate preincubated with enzyme for 15 mins followed by substrate addition measured for every 1 sec for 15 mins by fluorescence plate reader based HPLC analysis relative to control
Trypsin [3] = molecular target: T2, Trypsin (Homo sapiens, UniProt P07477+P07478+P35030); assay: Inhibition of trypsin (unknown origin) using Boc-Val-Pro-Arg-AMC as substrate preincubated with enzyme for 15 mins followed by addition of substrate by fluorescence plate reader analysis; format: protein assay
[4] = Stability of compound in phosphate buffer at pH 7.5 to 11; format: physicochemical
[5] = Stability of compound in TRIS assay buffer at pH 7.5 to 9; format: physicochemical
[6] = molecular target: Genome polyprotein (West Nile virus) (UniProt P06935); assay: as §1, with “West Nile” for “dengue”, “virus” for “virus serotype 2”, “2-Abz-Gly-Leu-Lys-Arg-Gly-Gly-(3-NO2)-Tyr-NH2” for “2-Abz-Nle-Lys-Arg-Arg-Ser-(3-NO2)-Tyr-NH2”, “microplate” for “plate”
Genome polyprotein (West Nile virus), sequence (P06935 whole entry, the tested form may be a part): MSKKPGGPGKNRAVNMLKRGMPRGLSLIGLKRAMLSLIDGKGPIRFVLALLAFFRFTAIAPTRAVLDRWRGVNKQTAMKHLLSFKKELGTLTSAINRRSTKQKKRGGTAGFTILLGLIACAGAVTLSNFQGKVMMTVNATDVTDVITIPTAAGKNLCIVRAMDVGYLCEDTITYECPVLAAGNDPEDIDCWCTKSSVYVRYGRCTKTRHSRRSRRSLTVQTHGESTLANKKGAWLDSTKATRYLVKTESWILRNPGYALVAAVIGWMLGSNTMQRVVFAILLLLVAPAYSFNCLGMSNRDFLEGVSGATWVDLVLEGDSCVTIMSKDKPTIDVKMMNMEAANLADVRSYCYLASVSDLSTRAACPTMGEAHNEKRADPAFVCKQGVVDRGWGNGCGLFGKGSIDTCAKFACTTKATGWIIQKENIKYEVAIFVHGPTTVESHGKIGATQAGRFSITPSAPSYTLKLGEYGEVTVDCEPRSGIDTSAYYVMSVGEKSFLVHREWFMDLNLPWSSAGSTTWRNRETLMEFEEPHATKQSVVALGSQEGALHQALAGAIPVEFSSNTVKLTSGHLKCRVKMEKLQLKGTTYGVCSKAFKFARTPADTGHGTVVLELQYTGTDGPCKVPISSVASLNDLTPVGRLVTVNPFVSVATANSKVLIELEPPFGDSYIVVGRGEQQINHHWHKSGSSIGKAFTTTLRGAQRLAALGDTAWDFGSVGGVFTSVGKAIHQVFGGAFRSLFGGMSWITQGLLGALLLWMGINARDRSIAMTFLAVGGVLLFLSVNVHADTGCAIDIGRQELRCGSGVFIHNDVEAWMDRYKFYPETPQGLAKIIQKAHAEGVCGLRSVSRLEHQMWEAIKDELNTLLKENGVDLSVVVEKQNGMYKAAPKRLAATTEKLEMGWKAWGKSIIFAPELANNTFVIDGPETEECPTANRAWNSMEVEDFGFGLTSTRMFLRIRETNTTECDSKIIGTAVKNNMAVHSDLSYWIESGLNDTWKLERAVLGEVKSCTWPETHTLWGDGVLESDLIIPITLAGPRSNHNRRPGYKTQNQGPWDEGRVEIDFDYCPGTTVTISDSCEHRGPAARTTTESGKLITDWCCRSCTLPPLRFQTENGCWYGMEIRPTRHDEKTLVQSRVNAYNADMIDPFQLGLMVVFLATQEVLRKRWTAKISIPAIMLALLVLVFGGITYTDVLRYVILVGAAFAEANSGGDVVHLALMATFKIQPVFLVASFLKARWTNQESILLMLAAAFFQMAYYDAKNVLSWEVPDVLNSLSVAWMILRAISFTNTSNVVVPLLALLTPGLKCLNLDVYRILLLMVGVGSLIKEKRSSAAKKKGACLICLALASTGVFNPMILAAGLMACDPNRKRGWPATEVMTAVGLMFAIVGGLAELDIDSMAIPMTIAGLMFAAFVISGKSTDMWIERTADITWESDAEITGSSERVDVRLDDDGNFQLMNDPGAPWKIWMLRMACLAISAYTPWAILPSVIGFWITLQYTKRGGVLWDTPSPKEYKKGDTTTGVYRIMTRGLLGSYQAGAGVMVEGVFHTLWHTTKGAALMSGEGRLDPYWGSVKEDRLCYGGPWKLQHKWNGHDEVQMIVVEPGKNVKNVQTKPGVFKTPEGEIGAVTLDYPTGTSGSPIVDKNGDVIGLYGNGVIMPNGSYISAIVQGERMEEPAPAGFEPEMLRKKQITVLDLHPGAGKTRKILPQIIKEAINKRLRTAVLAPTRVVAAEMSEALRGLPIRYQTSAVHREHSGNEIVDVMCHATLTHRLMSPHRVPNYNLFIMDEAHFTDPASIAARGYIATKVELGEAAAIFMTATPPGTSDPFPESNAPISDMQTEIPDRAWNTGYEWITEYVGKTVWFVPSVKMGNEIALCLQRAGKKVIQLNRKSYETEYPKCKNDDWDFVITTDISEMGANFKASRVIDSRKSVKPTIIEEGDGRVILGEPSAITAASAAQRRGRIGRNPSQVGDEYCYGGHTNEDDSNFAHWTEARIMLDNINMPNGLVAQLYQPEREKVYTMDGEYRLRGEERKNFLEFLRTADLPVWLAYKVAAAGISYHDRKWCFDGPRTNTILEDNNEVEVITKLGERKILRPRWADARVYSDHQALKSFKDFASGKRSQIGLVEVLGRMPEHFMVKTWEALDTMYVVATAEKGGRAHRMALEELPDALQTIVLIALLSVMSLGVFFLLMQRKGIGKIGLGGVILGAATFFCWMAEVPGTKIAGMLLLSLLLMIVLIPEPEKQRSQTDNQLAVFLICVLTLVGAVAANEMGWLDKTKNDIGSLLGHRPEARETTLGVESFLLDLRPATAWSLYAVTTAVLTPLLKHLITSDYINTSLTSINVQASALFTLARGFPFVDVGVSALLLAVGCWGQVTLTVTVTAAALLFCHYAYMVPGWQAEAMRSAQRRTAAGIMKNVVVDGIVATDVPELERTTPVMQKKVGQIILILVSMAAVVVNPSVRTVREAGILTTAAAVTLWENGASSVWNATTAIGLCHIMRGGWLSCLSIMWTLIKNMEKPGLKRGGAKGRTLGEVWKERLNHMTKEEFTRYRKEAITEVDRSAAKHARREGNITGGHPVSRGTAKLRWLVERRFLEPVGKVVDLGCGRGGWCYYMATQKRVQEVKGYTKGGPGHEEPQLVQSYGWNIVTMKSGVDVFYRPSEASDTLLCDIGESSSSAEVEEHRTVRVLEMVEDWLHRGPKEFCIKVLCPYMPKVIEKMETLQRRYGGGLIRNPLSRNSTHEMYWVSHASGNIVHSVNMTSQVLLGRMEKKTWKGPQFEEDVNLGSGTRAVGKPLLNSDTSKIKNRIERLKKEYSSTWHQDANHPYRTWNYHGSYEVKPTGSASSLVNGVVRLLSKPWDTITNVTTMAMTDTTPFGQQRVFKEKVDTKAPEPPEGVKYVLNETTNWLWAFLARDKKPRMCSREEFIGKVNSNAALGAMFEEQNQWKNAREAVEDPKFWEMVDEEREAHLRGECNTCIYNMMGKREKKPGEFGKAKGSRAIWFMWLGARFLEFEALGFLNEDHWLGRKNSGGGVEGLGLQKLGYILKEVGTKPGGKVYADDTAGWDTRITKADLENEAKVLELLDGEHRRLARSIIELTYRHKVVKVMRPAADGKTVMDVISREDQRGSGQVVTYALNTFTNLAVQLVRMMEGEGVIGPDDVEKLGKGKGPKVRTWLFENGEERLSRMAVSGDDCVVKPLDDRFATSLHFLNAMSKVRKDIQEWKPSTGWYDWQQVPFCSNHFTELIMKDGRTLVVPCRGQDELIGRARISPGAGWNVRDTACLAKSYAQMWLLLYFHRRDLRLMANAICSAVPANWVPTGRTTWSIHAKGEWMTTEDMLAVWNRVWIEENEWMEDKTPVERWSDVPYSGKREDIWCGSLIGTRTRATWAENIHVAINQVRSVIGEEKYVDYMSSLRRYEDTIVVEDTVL

Prothrombin [7] = molecular target: T1, Prothrombin; assay: Inhibition of thrombin (unknown origin) using Boc-Val-Pro-Arg-AMC as substrate preincubated with enzyme for 15 mins followed by addition of substrate by fluorescence plate reader analysis
Trypsin [8] = molecular target: T2, Trypsin; assay: Inhibition of trypsin (unknown origin) at 50 uM using Boc-Val-Pro-Arg-AMC as substrate preincubated with enzyme for 15 mins followed by addition of substrate by fluorescence plate reader analysis relative to control; format: protein assay
[9] = molecular target: Genome polyprotein (dengue virus type 2) (UniProt P29990); assay: Reversible covalent binding affinity at dengue virus serotype 2 His-tagged NS2B cofactor domain-NS3 protease expressed in Escherichia coli assessed as acyl-enzyme adduct formation at 100 uM incubated for 2 hrs by ESI-MS analysis
dengue virus type 2 = assay: Reversible covalent binding affinity at dengue virus serotype 2 His-tagged NS2B cofactor domain-NS3 protease S135A mutant expressed in Escherichia coli assessed as acyl-enzyme adduct formation at 100 uM incubated for 24 hrs by ESI-MS analysis
[10] = molecular target: Genome polyprotein (dengue virus type 2) (UniProt P29990); assay: as §1, with “Time-dependent inhibition of dengue” for “Inhibition of dengue”, “enzyme for 20 to 40 mins followed” for “enzyme for 15 mins followed”, “HPLC analysis” for “HPLC analysis relative to control”
[11] = molecular target: Genome polyprotein (dengue virus type 2) (UniProt P29990); assay: Reversible covalent binding affinity at dengue virus serotype 2 His-tagged NS2B cofactor domain-NS3 protease expressed in Escherichia coli assessed as acyl-enzyme adduct formation at 100 uM incubated for 24 hrs by ESI-MS analysis
[12] = molecular target: Genome polyprotein (dengue virus type 2) (UniProt P29990); assay: as §1, with “1 mM” for “50 uM”
Trypsin [13] = molecular target: T2, Trypsin; assay: Inhibition of trypsin (unknown origin) at 1 mM using Boc-Val-Pro-Arg-AMC as substrate preincubated with enzyme for 15 mins followed by addition of substrate by fluorescence plate reader analysis relative to control; format: protein assay
Prothrombin [14] = molecular target: T1, Prothrombin; assay: Inhibition of thrombin (unknown origin) at 500 uM using Boc-Val-Pro-Arg-AMC as substrate preincubated with enzyme for 15 mins followed by addition of substrate by fluorescence plate reader analysis relative to control
[15] = molecular target: Genome polyprotein (West Nile virus) (UniProt P06935); assay: Inhibition of West Nile virus His-tagged NS2B cofactor domain-NS3 protease expressed in Escherichia coli at 1 mM using 2-Abz-Gly-Leu-Lys-Arg-Gly-Gly-(3-NO2)-Tyr-NH2 as substrate preincubated with enzyme for 15 mins followed by substrate addition measured for every 1 sec for 15 mins by fluorescence microplate reader based HPLC analysis relative to control
[16] = molecular target: Genome polyprotein (dengue virus type 2) (UniProt P29990); assay: Reversible covalent binding affinity at dengue virus serotype 2 His-tagged NS2B cofactor domain-NS3 protease expressed in Escherichia coli assessed as acyl-enzyme adduct formation at 100 uM incubated for 5 to 24 hrs by ESI-MS analysis
[17] = molecular target: Genome polyprotein (dengue virus type 2) (UniProt P29990); assay: Time-dependent inhibition of dengue virus serotype 2 His-tagged NS2B cofactor domain-NS3 protease expressed in Escherichia coli at 200 uM using 2-Abz-Nle-Lys-Arg-Arg-Ser-(3-NO2)-Tyr-NH2 as substrate preincubated with enzyme for 20 to 40 mins followed by substrate addition measured for every 1 sec for 15 mins by fluorescence plate reader based HPLC analysis
[18] = Stability of compound in phosphate buffer at pH 9; format: physicochemical
[19] = Stability of compound in TRIS buffer assessed as half life at pH 9; format: physicochemical
[20] = molecular target: Genome polyprotein (dengue virus type 2) (UniProt P29990); assay: Reversible covalent binding affinity at dengue virus serotype 2 His-tagged NS2B cofactor domain-NS3 protease expressed in Escherichia coli assessed as acyl-enzyme adduct formation at 100 uM incubated for 5 to 30 mins by ESI-MS analysis
Genome polyprotein = Genome polyprotein (dengue virus type 2, UniProt P29990); assay: as §1, with “coli” for “coli at 50 uM”, “analysis” for “analysis relative to control”
[21] = molecular target: Genome polyprotein (dengue virus type 2) (UniProt P29990); assay: Inhibition of dengue virus serotype 2 His-tagged NS2B catalytic domain-NS3 protease expressed in Escherichia coli at 100 uM using 2-Abz-Nle-Lys-Arg-Arg-Ser-(3-NO2)-Tyr-NH2 as substrate preincubated with enzyme for 1 hr followed by substrate addition measured for every 1 sec for 15 mins by fluorescence plate reader based HPLC analysis relative to control
[22] = molecular target: Genome polyprotein (dengue virus type 2) (UniProt P29990); assay: Reversible covalent inhibition of dengue virus serotype 2 His-tagged NS2B catalytic domain-NS3 protease expressed in Escherichia coli at 100 uM using 2-Abz-Nle-Lys-Arg-Arg-Ser-(3-NO2)-Tyr-NH2 as substrate preincubated with enzyme for 1 hr followed by dilution prior to substrate addition measured at 120 mins after dilution by fluorescence plate reader based HPLC analysis
[23] = molecular target: Genome polyprotein (dengue virus type 2) (UniProt P29990); assay: Reversible covalent binding affinity at dengue virus serotype 2 His-tagged NS2B cofactor domain-NS3 protease expressed in Escherichia coli assessed as acyl-enzyme adduct formation at 100 uM incubated for 20 hrs by ESI-MS analysis
[24] = Stability of compound in phosphate buffer assessed as half life at pH 11; format: physicochemical
[25] = molecular target: Genome polyprotein (dengue virus type 2) (UniProt P29990); assay: Reversible covalent inhibition of dengue virus serotype 2 His-tagged NS2B catalytic domain-NS3 protease expressed in Escherichia coli using 2-Abz-Nle-Lys-Arg-Arg-Ser-(3-NO2)-Tyr-NH2 as substrate preincubated initially at 100 uM with enzyme for 1 hr followed by dilution with assay buffer to achieve compound concentration of 3.33 uM prior to substrate addition measured immediately after dilution by fluorescence plate reader based HPLC analysis
[26] = Stability of compound in TRIS buffer at pH 7.5; format: physicochemical
[27] = molecular target: Genome polyprotein (dengue virus type 2) (UniProt P29990); assay: Reversible covalent inhibition of dengue virus serotype 2 His-tagged NS2B catalytic domain-NS3 protease expressed in Escherichia coli using 2-Abz-Nle-Lys-Arg-Arg-Ser-(3-NO2)-Tyr-NH2 as substrate preincubated initially at 100 uM with enzyme for 1 hr followed by dilution with assay buffer to achieve compound concentration of 3.33 uM prior to substrate addition measured after dilution over time by fluorescence plate reader based HPLC analysis

SMILES | inhibition (Prothrombin [1]) | inhibition [2] | IC50 (Trypsin [3]) | inhibition [6] | inhibition (Trypsin [8]) | inhibition [12] | inhibition (Trypsin [13]) | inhibition (Prothrombin [14]) | inhibition [15] | further results
N=C(N)Nc1ccc(C(=O)Oc2ccc(N)cc2)cc1 | 97.1% | 8.8% | 0.028 µM | < 5% | 102% |  |  |  |  | Stability [4]: Stable; Stability [5]: Stable; pIC50 (Prothrombin [7]): 6.10
N=C(N)Nc1ccc(OC(=O)c2ccc(N)cc2)cc1 | 76.7% | 45.4% | 0.00278 µM | < 5% | 101% |  |  |  |  | Activity [9]: inactive; Activity (dengue virus type 2): inactive; TDI [10]: Active; pIC50 (Prothrombin [7]): 4.75; Activity [11]: Active
CN(C(=O)Oc1ccc(N)cc1)c1ccc(N)cc1 |  |  |  |  |  | 29.8% | 95.9% | 72.7% | 68% | 
N=C(N)NCCCCC(=O)Oc1ccc(NC(=N)N)cc1 | 72.5% | 4.6% |  | < 5% | 65.9% |  |  |  |  | 
N=C(N)NCCCOC(=O)c1ccc(NC(=N)N)cc1 | 22.8% | 56.8% | 9.84 µM | < 5% | 78.9% |  |  |  |  | Stability [4]: Stable; Stability [5]: Stable
CN(C(=O)Oc1ccc(CN)cc1)c1ccc(N)cc1 |  |  |  |  |  | 22.9% | 95.6% | 46.9% | 59.3% | 
CN(C)C(=O)Oc1cc(NC(=N)N)ccc1NC(=O)c1ccc(NC(=N)N)cc1 |  |  |  |  |  | 20.2% | 99.2% | 67.8% | 23.9% | 
Nc1ccc(NC(=O)Oc2ccc(N)cc2)cc1 |  |  |  |  |  | 33.7% | 99.2% | 83.3% | 72.8% | 
CN(C)C(=O)COC(=O)Cc1ccc(OC(=O)c2ccc(NC(=N)N)cc2)cc1 [CAMOSTAT] | 94% | 19.6% | 0.0035 µM | 12.6% | 100% |  |  |  |  | 
N=C(N)Nc1ccc(NC(=O)Oc2ccc(N)cc2)cc1 | 12.1% | 52% | 46.3 µM | 61.9% | 101% | 52% | 101% | 12.1% | 61.9% | Activity [16]: inactive; TDI [17]: inactive
N=C(N)Nc1ccc(C(=O)Nc2cccc(NC(=N)N)c2)cc1 | 16.4% | 36.8% | 23.9 µM | < 5% | 94.6% |  |  |  |  | 
N=C(N)Nc1ccc(C(=O)Oc2ccc(CN)cc2)cc1 | 92.5% | 40.1% | 0.00156 µM | 36.5% | 101% |  |  |  |  | TDI [10]: Active; pIC50 (Prothrombin [7]): 6.28
N=C(N)NCCCC(=O)Oc1ccc(NC(=N)N)cc1 | 13.2% | 4.2% |  | < 5% | 18.3% |  |  |  |  | 
CN(C)C(=O)Oc1cc(NC(=N)N)ccc1C(=O)Nc1ccc(CN)cc1 |  |  |  |  |  | 74.4% | 43.7% | 12.4% | 73.3% | 
N=C(N)Nc1ccc(C(=O)Oc2cccc(NC(=N)N)c2)cc1 | 100% | 51.3% |  | 17.5% | 100% |  |  |  |  | 
N=C(N)Nc1ccc(OC(=O)c2ccc(NC(=N)N)cc2)cc1 | 99% | 98.1% | 0.00135 µM | 29.8% | 100% |  |  |  |  | Stability [18]: Stable; half-life [19]: 16.8 min; Activity [20]: Active; pIC50 (Genome polyprotein): 4.84; inhibition [21]: 100%; inhibition [22]: inactive; Activity (dengue virus type 2): inactive; Activity [23]: inactive; half-life [24]: 17.8 min; TDI [10]: Active; inhibition [25]: Active; pIC50 (Prothrombin [7]): 5.39; Stability [26]: Stable; inhibition [27]: inactive
CN(C)C(=O)Oc1ccc(NC(=N)N)cc1C(=O)Nc1ccc(CN)cc1 |  |  |  |  |  | 56% | 19.3% | 24.3% | 76.1% | 
CN(C(=O)Oc1ccc(CN)cc1)c1ccc(CN)cc1 |  |  |  |  |  | 31.3% | 43.9% | 12.2% | 62.9% | 
N=C(N)NCCCCOC(=O)c1ccc(NC(=N)N)cc1 | 27.3% | 49% | 8.27 µM | 17.1% | 84% |  |  |  |  | 
N=C(N)NCc1ccc(NC(=O)Oc2ccc(N)cc2)cc1 |  |  |  |  |  | 60.8% | 98.4% | 44.4% | 68.8% | 
N=C(N)Nc1ccc(NC(=O)c2ccc(NC(=N)N)cc2)cc1 | 23.9% | 23.2% |  | 17.9% | 87.2% |  |  |  |  | Activity [16]: inactive; Stability [4]: Stable; TDI [10]: inactive; Stability [5]: Stable
